Measured values as given in PubChem BioAssay (NCI).
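Assay format: 96-well plates, 48-hour exposure. At the GI50, growth is halved. TGI is the concentration that stops growth completely.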

Experiments:
Experiment in all cases: DTP human tumour cell line panel, 48 h
SW-620 colon = tested on: SW-620 colon
NCI-H522 lung = tested on: NCI-H522 lung
TK-10 renal = tested on: TK-10 renal
OVCAR-3 ovarian = tested on: OVCAR-3 ovarian
M14 melanoma = tested on: M14 melanoma
CAKI-1 renal = tested on: CAKI-1 renal
SF-295 CNS = tested on: SF-295 CNS
LOX IMVI melanoma = tested on: LOX IMVI melanoma
DU-145 prostate = tested on: DU-145 prostate
HOP-62 NSCLC = tested on: HOP-62 NSCLC
MDA-MB-435 = tested on: MDA-MB-435
NCI-H460 lung = tested on: NCI-H460 lung
UO-31 renal = tested on: UO-31 renal
A549 NSCLC = tested on: A549 NSCLC
HL-60(TB) leukemia = tested on: HL-60(TB) leukemia
SF-539 CNS = tested on: SF-539 CNS
786-0 renal = tested on: 786-0 renal
NCI/ADR-RES ovarian = tested on: NCI/ADR-RES ovarian
HCT-15 colon = tested on: HCT-15 colon
A498 renal = tested on: A498 renal
CCRF-CEM leukemia = tested on: CCRF-CEM leukemia
HCC-2998 colon = tested on: HCC-2998 colon
COLO 205 colon = tested on: COLO 205 colon
MCF7 breast = tested on: MCF7 breast
EKVX NSCLC = tested on: EKVX NSCLC
BT-549 breast = tested on: BT-549 breast
OVCAR-8 ovarian = tested on: OVCAR-8 ovarian
NCI-H226 lung = tested on: NCI-H226 lung
HT29 colon = tested on: HT29 colon

O=C(N=Nc1c(O)[nH]c2ccc(Br)cc12)c1ccc2nc(-c3ccccc3)[nH]c2c1
GI50 (SW-620 colon): 1.82 µM | TGI (SW-620 colon): 3.61 µM | GI50 (NCI-H522 lung): 1.38 µM | TGI (NCI-H522 lung): 3.1 µM | GI50 (TK-10 renal): 3.61 µM | TGI (TK-10 renal): 70.1 µM | GI50 (OVCAR-3 ovarian): 2.14 µM | TGI (OVCAR-3 ovarian): 4.26 µM | GI50 (M14 melanoma): 1.95 µM | TGI (M14 melanoma): 4.14 µM | GI50 (CAKI-1 renal): > 100 µM | TGI (CAKI-1 renal): > 100 µM | GI50 (SF-295 CNS): 1.86 µM | TGI (SF-295 CNS): 3.78 µM | GI50 (LOX IMVI melanoma): 1.23 µM | TGI (LOX IMVI melanoma): 2.51 µM | GI50 (DU-145 prostate): 1.95 µM | TGI (DU-145 prostate): 4.06 µM | GI50 (HOP-62 NSCLC): 1.69 µM | TGI (HOP-62 NSCLC): 3.36 µM | GI50 (MDA-MB-435): 2.32 µM | TGI (MDA-MB-435): 4.93 µM | GI50 (NCI-H460 lung): 1.79 µM | TGI (NCI-H460 lung): 3.53 µM | GI50 (UO-31 renal): > 100 µM | TGI (UO-31 renal): > 100 µM | GI50 (A549 NSCLC): 2.22 µM | TGI (A549 NSCLC): 7.41 µM | GI50 (HL-60(TB) leukemia): 2.54 µM | TGI (HL-60(TB) leukemia): 6.73 µM | GI50 (SF-539 CNS): 1.77 µM | TGI (SF-539 CNS): 3.43 µM | GI50 (786-0 renal): 2.01 µM | TGI (786-0 renal): 3.91 µM | GI50 (NCI/ADR-RES ovarian): > 100 µM | TGI (NCI/ADR-RES ovarian): > 100 µM | GI50 (HCT-15 colon): 18.6 µM | TGI (HCT-15 colon): > 100 µM | GI50 (A498 renal): 3.55 µM | TGI (A498 renal): 17.9 µM | GI50 (CCRF-CEM leukemia): 3.18 µM | TGI (CCRF-CEM leukemia): > 100 µM | GI50 (HCC-2998 colon): 1.48 µM | TGI (HCC-2998 colon): 3.11 µM | GI50 (COLO 205 colon): 2.53 µM | TGI (COLO 205 colon): 6.95 µM | GI50 (MCF7 breast): 1.7 µM | TGI (MCF7 breast): 5.09 µM | GI50 (EKVX NSCLC): 3 µM | TGI (EKVX NSCLC): 11.2 µM | GI50 (BT-549 breast): 3.55 µM | TGI (BT-549 breast): 26.5 µM | GI50 (OVCAR-8 ovarian): 1.53 µM | TGI (OVCAR-8 ovarian): 3.76 µM | GI50 (NCI-H226 lung): 2.03 µM | TGI (NCI-H226 lung): 5.43 µM | GI50 (HT29 colon): 2.66 µM | TGI (HT29 colon): 8.75 µM
